Measured values: patent US11753407B2, “Compounds for treating spinal muscular atrophy” (PTC Therapeutics, Inc., priority 2012, dated 2023)

Assays:
[1] = test system: Smn protein in SMA patient fibroblast cells (GM03813); assay: Smn protein assay in cultured cells (SMN HTRF); type: cell-based, human; settings: SMA patient fibroblast cells, 48 hours; for EC1.5x for Smn protein expression: 7-point concentration curve, SMN HTRF, concentration producing 1.5 times Smn protein vs DMSO vehicle control; for maximum fold (Fold) increase of Smn protein: 7-point concentration data, fold relative to vehicle control
Procedure, shortened: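 SMA patient fibroblasts (5,000 cells/well, DMEM-10% FBS) were treated for 48 h at 37 °C with a 7-point, 3.16-fold dilution series in triplicate. RIPA lysates were probed by HTRF (anti-SMN d2/kryptate, overnight, room temperature), reading 665/620 nm. EC1.5× is the concentration giving 1.5-fold Smn over DMSO vehicle.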

[2] = test system: SMN2 minigene mRNA (SMN2-A minigene) in HEK293H cells; assay: SMN2 minigene mRNA splicing RT-qPCR assay in cultured cells; type: cell-based, human; settings: Homo sapiens, HEK293-H; concentration increasing full length SMN2 mRNA 1.5-fold relative to vehicle-treated cells; HEK293H cells with SMN2-A minigene, 24 hours, 7-point concentration data; read-out: EC1.5x for production of full length SMN2 mRNA
Procedure, shortened: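 HEK293H cells stably carrying the SMN2-A minigene were treated for 24 h at 37 °C with a 7-point, 3.16-fold dilution series of compound. Multiplex RT-qPCR measured exon 7-containing minigene FL mRNA against GAPDH, expressed relative to vehicle by modified ΔΔCt; the EC1.5× is the concentration giving a 1.5-fold increase.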

SMILES: Cn1ncc2cc(-c3cc(=O)n4cc(C5=CCNCC5)ccc4n3)ccc21 [Cpd 443, 2-(1-methyl-1H-indazol-5-yl)-7-(1,2,3,6-tetrahydropyridin-4-yl)-4H-pyrido[1,2-a]pyrimidin-4-one]
- melting point: 200 to 203 °C
- EC1.5x for Smn protein expression [1]: **** (an EC1.5x≤0.3 μM is indicated by four stars (****))
- maximum fold (Fold) increase of Smn protein [1]: ***** (a fold increase >1.65 is indicated by five stars (*****))
- EC (1.5-fold increase) [2]: < 0.1 µM

SMILES: Cc1cc2cc(-c3cc(=O)n4cc(N5CCNCC5)ccc4n3)oc2c(C)n1 [Cpd 486, 2-(5,7-dimethylfuro[2,3-c]pyridin-2-yl)-7-(piperazin-1-yl)-4H-pyrido[1,2-a]pyrimidin-4-one]
- melting point: 198 to 200 °C
- EC1.5x for Smn protein expression [1]: **** (an EC1.5x≤0.3 μM is indicated by four stars (****))
- maximum fold (Fold) increase of Smn protein [1]: **** (a fold increase between >1.5 and ≤1.65 is indicated by four stars (****))
- EC (1.5-fold increase) [2]: < 0.1 µM

SMILES: Cn1ncc2cc(-c3cc(=O)n4cc(C5CCNCC5)ccc4n3)ccc21 [Cpd 603, 2-(1-methyl-1H-indazol-5-yl)-7-(piperidin-4-yl)-4H-pyrido[1,2-a]pyrimidin-4-one]
- melting point: 268 to 270 °C
- EC1.5x for Smn protein expression [1]: *** (an EC1.5× between >0.3 μM and ≤1 μM is indicated by three stars (***))
- maximum fold (Fold) increase of Smn protein [1]: ***** (a fold increase >1.65 is indicated by five stars (*****))
- EC (1.5-fold increase) [2]: 0.1 to 0.3 µM

SMILES: COc1nc(C)cn2nc(-c3cc(=O)n4cc(N5CCN(C)CC5)ccc4n3)cc12 [Cpd 625, 2-(4-methoxy-6-methylpyrazolo[1,5-a]pyrazin-2-yl)-7-(4-methylpiperazin-1-yl)-4H-pyrido[1,2-a]pyrimidin-4-one]
- melting point: 242 to 244 °C
- maximum fold (Fold) increase of Smn protein [1]: ** (a fold increase between >1.2 and ≤1.35 is indicated by two stars (**))
- EC (1.5-fold increase) [2]: 1 to 3 µM

SMILES: Cc1cn2nc(-c3cc(=O)n4cc(N5CCN(C)CC5)ccc4n3)cc2c(O)n1 [Cpd 626, 2-(4-hydroxy-6-methylpyrazolo[1,5-a]pyrazin-2-yl)-7-(4-methylpiperazin-1-yl)-4H-pyrido[1,2-a]pyrimidin-4-one]
- melting point: 280 to 283 °C
- EC1.5x for Smn protein expression [1]: ** (an EC1.5× between >1 μM and ≤3 μM is indicated by two stars (**))
- maximum fold (Fold) increase of Smn protein [1]: ***** (a fold increase >1.65 is indicated by five stars (*****))
- EC (1.5-fold increase) [2]: 0.3 to 1 µM

SMILES: CCc1nc(C)cn2nc(-c3cc(=O)n4cc(N5CCN(C)[C@H](C)C5)ccc4n3)cc12 [Cpd 629, 7-[(3R)-3,4-dimethylpiperazin-1-yl]-2-(4-ethyl-6-methylpyrazolo[1,5-a]pyrazin-2-yl)-4H-pyrido[1,2-a]pyrimidin-4-one]
- melting point: 257 to 259 °C
- EC1.5x for Smn protein expression [1]: **** (an EC1.5x≤0.3 μM is indicated by four stars (****))
- maximum fold (Fold) increase of Smn protein [1]: ***** (a fold increase >1.65 is indicated by five stars (*****))
- EC (1.5-fold increase) [2]: < 0.1 µM

SMILES: Cc1cn2nc(-c3cc(=O)n4cc(C5CCN(CCF)CC5)ccc4n3)cc2c(C)n1 [Cpd 662, 2-(4,6-dimethylpyrazolo[1,5-a]pyrazin-2-yl)-7-[1-(2-fluoroethyl)piperidin-4-yl]-4H-pyrido[1,2-a]pyrimidin-4-one]
- melting point: 197 to 199 °C
- EC1.5x for Smn protein expression [1]: **** (an EC1.5x≤0.3 μM is indicated by four stars (****))
- maximum fold (Fold) increase of Smn protein [1]: ***** (a fold increase >1.65 is indicated by five stars (*****))
- EC (1.5-fold increase) [2]: < 0.1 µM

SMILES: Cc1cn2cc(-c3cc(=O)n4cc(N5CCNCC5)ccc4n3)cc(CO)c2n1 [Cpd 674, 2-[8-(hydroxymethyl)-2-methylimidazo[1,2-a]pyridin-6-yl]-7-(piperazin-1-yl)-4H-pyrido[1,2-a]pyrimidin-4-one]
- melting point: > 320 °C
- EC1.5x for Smn protein expression [1]: **** (an EC1.5x≤0.3 μM is indicated by four stars (****))
- maximum fold (Fold) increase of Smn protein [1]: ***** (a fold increase >1.65 is indicated by five stars (*****))
- EC (1.5-fold increase) [2]: < 0.1 µM

SMILES: Cc1cn2nc(-c3cc(=O)n4cc(N5CCNCC5)ccc4n3)cc2c(N(C)C)n1 [Cpd 688, 2-[4-(dimethylamino)-6-methylpyrazolo[1,5-a]pyrazin-2-yl]-7-(piperazin-1-yl)-4H-pyrido[1,2-a]pyrimidin-4-one]
- melting point: 245 to 248 °C
- EC1.5x for Smn protein expression [1]: ** (an EC1.5× between >1 μM and ≤3 μM is indicated by two stars (**))
- maximum fold (Fold) increase of Smn protein [1]: *** (a fold increase between >1.35 and ≤1.5 is indicated by three stars (***))
- EC (1.5-fold increase) [2]: 1 to 3 µM

SMILES: CCc1nc(C)cn2nc(-c3cc(=O)n4cc(C5CCN(C(CO)CO)CC5)ccc4n3)cc12 [Cpd 694, 7-[1-(1,3-dihydroxypropan-2-yl)piperidin-4-yl]-2-(4-ethyl-6-methylpyrazolo[1,5-a]pyrazin-2-yl)-4H-pyrido[1,2-a]pyrimidin-4-one]
- melting point: 228 to 230 °C
- EC1.5x for Smn protein expression [1]: **** (an EC1.5x≤0.3 μM is indicated by four stars (****))
- maximum fold (Fold) increase of Smn protein [1]: ***** (a fold increase >1.65 is indicated by five stars (*****))
- EC (1.5-fold increase) [2]: < 0.1 µM

SMILES: Cc1cn2cc(-c3cc(=O)n4cc(N5CCNCC5)ccc4n3)cc(C3CC3)c2n1 [Cpd 714, 2-(8-cyclopropyl-2-methylimidazo[1,2-a]pyridin-6-yl)-7-(piperazin-1-yl)-4H-pyrido[1,2-a]pyrimidin-4-one]
- melting point: 274 to 277 °C
- EC1.5x for Smn protein expression [1]: **** (an EC1.5x≤0.3 μM is indicated by four stars (****))
- maximum fold (Fold) increase of Smn protein [1]: ***** (a fold increase >1.65 is indicated by five stars (*****))
- EC (1.5-fold increase) [2]: < 0.1 µM

SMILES: Cc1cn2nc(-c3cc(=O)n4cc(N5CC[C@@H](CN)C5)ccc4n3)cc2c(C)n1 [Cpd 764, 7-[(3S)-3-(aminomethyl)pyrrolidin-1-yl]-2-(4,6-dimethylpyrazolo[1,5-a]pyrazin-2-yl)-4H-pyrido[1,2-a]pyrimidin-4-one]
- melting point: 244 to 246 °C
- EC1.5x for Smn protein expression [1]: * (An EC1.5× for Smn protein expression between >3 μM and ≤10 μM is indicated by one star (*))
- maximum fold (Fold) increase of Smn protein [1]: *** (a fold increase between >1.35 and ≤1.5 is indicated by three stars (***))
- EC (1.5-fold increase) [2]: 1 to 3 µM

SMILES: Cc1cn2nc(-c3cc(=O)n4cc(CCCN(C)C)ccc4n3)cc2c(C)n1 [Cpd 769, 7-[3-(dimethylamino)propyl]-2-(4,6-dimethylpyrazolo[1,5-a]pyrazin-2-yl)-4H-pyrido[1,2-a]pyrimidin-4-one]
- melting point: 136 to 138 °C
- EC1.5x for Smn protein expression [1]: *** (an EC1.5× between >0.3 μM and ≤1 μM is indicated by three stars (***))
- maximum fold (Fold) increase of Smn protein [1]: ***** (a fold increase >1.65 is indicated by five stars (*****))
- EC (1.5-fold increase) [2]: 0.1 to 0.3 µM

SMILES: Cc1cn2nc(-c3cc(=O)n4cc(C5=C[C@H](C)N[C@@H](C)C5)ccc4n3)cc2c(C)n1 [Cpd 798, 2-(4,6-dimethylpyrazolo[1,5-a]pyrazin-2-yl)-7-[(2S,6S)-2,6-dimethyl-1,2,3,6-tetrahydropyridin-4-yl]-4H-pyrido[1,2-a]pyrimidin-4-one]
- melting point: 228 to 231 °C
- EC1.5x for Smn protein expression [1]: **** (an EC1.5x≤0.3 μM is indicated by four stars (****))
- maximum fold (Fold) increase of Smn protein [1]: ***** (a fold increase >1.65 is indicated by five stars (*****))
- EC (1.5-fold increase) [2]: < 0.1 µM
